Measurements published in EP0189755A1, “Pharmaceutical composition” (F. HOFFMANN-LA ROCHE AG, priority 1985, dated 1986).

Columns and labels:
[1] = tested on: P388 leukemia cells; assay: Antitumor effects against intraperitoneally implanted P388 leukemia in mice (increase in life span, survival, body weight); details: for dose ILS30: dose of 5'-DFUR or 5-FU giving ILS30; for dose ILS30 / dose ILSmax: GMP 100 mg/kg/day in the combinations, unit not given in Table 4; for dose ILSmax: dose of 5'-DFUR or 5-FU giving ILSmax
Experimental: BDF1 male mice weighing 21 to 23 g were used as experimental animals. P388 leukemia cells were implanted intraperitoneally into the mice. Seven days after the implantation, ascites were collected and diluted with saline to prepare the suspension containing 10^6 P388 leukemia cells in 0.05 ml. The mice were intraperitoneally implanted on day 0 with 10^6 P388 cells. Each group contained 6 mice. 5'-DFUR and GMP were dissolved in saline, alone or combined with each other. The test compounds were administered intraperitoneally from day 1 to day 5. The antitumor effects were evaluated by the increase in life span over control (ILS) calculated by the following formula: [formula] T: Mean survival time (days) in the test drug groups C: Mean survival time (days) in the control group administered intraperitoneally with saline alone
The safety of the drug was evaluated by the therapeutic ratio; the dose ILSmax / the dose ILS30.
In a manner analogous to that described in (1) above except that 5'-DFCR was used instead of 5'-DFUR, the antitumor effects thereof was tested as a referential example.

[2] = Acute toxicity; assay type: in vivo, male ICR mice
Experimental: Groups of 5 weeks old male ICR mice were treated intraperitoneally with 5'-DFUR and GMP at the dosage given in the- following Table 6. Each mice group contained 5 mice. Two weeks after, the number of died mice were counted.

[3] = 5'-DFCR 28 mg/kg/day, without GMP
[4] = 5'-DFCR 55 mg/kg/day, without GMP
[5] = 5'-DFCR 110 mg/kg/day, without GMP
[6] = 5'-DFCR 220 mg/kg/day, without GMP

## C[C@H]1O[C@@H](n2cc(F)c(N)nc2=O)[C@H](O)[C@@H]1O [5'-DFCR]
[1]; [3]
  Survival days (mean±SD): 10.7 ± 1.5 days
  T/C: 111%
[1]; [4]
  Survival days (mean±SD): 10.0 ± 1.7 days
  T/C: 104%
[1]; [5]
  Survival days (mean±SD): 10.3 ± 0.5 days
  T/C: 107%
[1]; [6]
  Survival days (mean±SD): 12.0 ± 1.7 days
  T/C: 125%

## Nc1nc2c(ncn2[C@@H]2O[C@H](COP(=O)(O)O)[C@@H](O)[C@H]2O)c(=O)[nH]1 [GMP, guanosine-5'-monophosphate]
[1]; GMP alone 100 mg/kg/day i.p. (5'-DFUR 0)
  ILS: -3%
[1]; GMP alone 300 mg/kg/day i.p. (5'-DFUR 0)
  ILS: 5%
[1]; GMP alone 500 mg/kg/day i.p. (5'-DFUR 0)
  ILS: 8%
[1]; GMP alone 1000 mg/kg/day i.p. (5'-DFUR 0)
  ILS: 1%
[1]; GMP alone (Table 3)
  influence on ILS: no influence observed
[1]; nucleotide alone 100 mg/kg/day
  Survival days (mean±SD): 8.8 ± 0.8 days
  T/C: 92%
[2]; GMP 2000 mg/kg, 5'-DFUR 0, intraperitoneally, counted two weeks after
  number of died mice/number of tested mice: 0/5
[2]; GMP 4000 mg/kg, 5'-DFUR 0, intraperitoneally, counted two weeks after
  number of died mice/number of tested mice: 1/5

## Nc1ncnc2c1ncn2[C@@H]1O[C@H](COP(=O)(O)O)[C@@H](O)[C@H]1O [AMP, adenosine-5'-monophosphate]
[1]; nucleotide alone 100 mg/kg/day
  Survival days (mean±SD): 9.5 ± 1.9 days
  T/C: 99%

## C[C@H]1O[C@@H](n2cc(F)c(=O)[nH]c2=O)[C@H](O)[C@@H]1O [5'-DFUR, 5'-deoxy-5-fluorouri-dine]
[1]; 5'-DFUR 250 mg/kg/day
  Survival days (mean±SD): 13.3 ± 0.8 days
  T/C: 139%
[1]; 5'-DFUR alone 2 mg/kg/day i.p., day 1 to day 5
  ILS: 0%
[1]; 5'-DFUR alone 4 mg/kg/day i.p., day 1 to day 5
  ILS: 1%
[1]; 5'-DFUR alone 8 mg/kg/day i.p., day 1 to day 5
  ILS: 8%
[1]; 5'-DFUR alone 16 mg/kg/day i.p., day 1 to day 5
  ILS: 15%
[1]; 5'-DFUR alone 32 mg/kg/day i.p., day 1 to day 5
  ILS: 21%
[1]; 5'-DFUR alone 63 mg/kg/day i.p., day 1 to day 5
  ILS: 21%
[1]; 5'-DFUR alone 125 mg/kg/day i.p., day 1 to day 5
  ILS: 31%
[1]; 5'-DFUR alone 250 mg/kg/day i.p., day 1 to day 5
  ILS: 48%
[1]; 5'-DFUR alone 500 mg/kg/day i.p., day 1 to day 5
  ILS: 24%
[1]
  dose ILS30: 125
  dose ILSmax: 250
[1]; dose series of 5'-DFUR i.p., GMP at 100 mg/kg/day in the combination group
  ILSmax: 48%
[2]; mouse, in vivo
  number of died mice/number of tested mice: 0/5

## O=c1[nH]cc(F)c(=O)[nH]1 [5-FU, 5-fluorouracil]
[1]
  dose ILS30: 0.75
  dose ILSmax: 20
